# Source: patent US20250332173A1, “COMPOUNDS AND METHODS FOR MODULATING NUCLEIC ACID SPLICING” (REMIX THERAPEUTICS INC., priority 2021, published 2025)
# Tested on: Target C
# Test: HiBiT protein abundance assay, Target C (Promega Nano-Glo HiBiT Lytic Detection System, knock-in K562 cell line)
# Assay type: cell-based, human
# Details: Homo sapiens, K562, 24 h, HiBiT K562 cell line, 24 hours, top dose 10 μM; read-out: Effect on protein abundance, Target C (IC50 category)
# How it was run: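 Knock-in K562 cells carrying HiBiT-tagged Target C, 10,000 per well, treated 24 h at 37 °C with 10-point threefold dilutions (top 10 μM final, ≤0.25% DMSO). Lytic HiBiT luminescence read; response normalised to unmodified K562 and DMSO controls, four-parameter fit interpolated at 50% for IC50.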
row,SMILES,IC50 [nM]
1,"Cc1cn2cc(-c3ncc4c(=O)n([C@H]5CCNC6(CC6)C5)ccc4n3)cc(F)c2n1 [Compound 1458, 6-[(7S)-4-azaspiro[2.5]octan-7-yl]-2-(8-fluoro-2-methyl-imidazo[1,2-a]pyridin-6-yl)pyrido[4,3-d]pyrimidin-5-one]",100 to 1000
2,"Cc1cn2cc(-c3ccc4c(c3)CCN(C3CCNCC3)C4=O)nc2c(C)n1 [Compound 221, 6-[6,8-dimethylimidazo[1,2-a]pyrazin-2-yl]-2-(piperidin-4-yl)-3,4-dihydroisoquinolin-1-one]",> 10000
3,Cc1cn2nc(-c3cc(F)c4c(=O)n(C5CCN(C)CC5)cnc4c3)cc(C)c2n1 [Compound 242],< 100
4,Cc1cn2nc(-n3cnc4cc(N5CCNCC5)ccc4c3=O)cc(C)c2n1 [Compound 241],1000 to 10000
5,"Cc1cn2nc(-c3ccc4c(=O)n([C@H]5CC(C)N[C@@H](C)C5)ncc4n3)cc(C)c2n1 (stereo in doubt) [Compound 1538, 2-(2,8-dimethylimidazo[1,2-b]pyridazin-6-yl)-6-[(2S,6S)-2,6-dimethyl-4-piperidyl]pyrido[2,3-d]pyridazin-5-one]",100 to 1000
6,Cn1cc2cc(-c3ccc4c(c3)CCN(C3CCNCC3)C4=O)cc(F)c2n1 [Compound 225],> 10000
7,"Cc1cn2nc(-c3ccc4c(=O)n(C5CCN(CCO)C6(CC6)C5)ncc4n3)cc(C)c2n1 (stereo not drawn) [Compound 1541, 2-(2,8-dimethylimidazo[1,2-b]pyridazin-6-yl)-6-[4-(2-hydroxyethyl)-4-azaspiro[2.5]octan-7-yl]pyrido-[2,3-d]pyridazin-5-one]",100 to 1000
8,"Cc1cn2cc(-c3ccc4c(c3)CCN(C3CCNCC3)C4=O)c(C)cc2n1 [Compound 218, 6-[2,7-dimethylimidazo[1,2-a]pyridin-6-yl]-2-(piperidin-4-yl)-3,4-dihydroisoquinolin-1-one]",1000 to 10000
9,"Cc1cn2nc(-c3ccc4c(c3)CCN(C3CCNCC3)C4=O)nc2c(C)n1 [Compound 222, 6-[6,8-dimethyl-[1,2,4]triazolo[1,5-a]pyrazin-2-yl]-2-(piperidin-4-yl)-3,4-dihydroisoquinolin-1-one]",1000 to 10000
10,"O=C1c2ccc(-c3cn[nH]c3)cc2CCN1C1CCNCC1 [Compound 220, 2-(piperidin-4-yl)-6-(1H-pyrazol-4-yl)-3,4-dihydroisoquinolin-1-one]",> 10000
11,Cc1cn2cc(-c3ccc4c(=O)n(C5CCNC(C)(C)C5)cnc4c3)cc(F)c2n1 (stereo not drawn) [Compound 237],1000 to 10000
12,Cn1cc2cc(-c3ncc4c(=O)n([C@H]5CCNC5)ccc4n3)c(O)c(F)c2n1 [Compound 1465],100 to 1000
13,Cc1cn2cc(-c3ccc4c(=O)n(C5CCN(C)CC5)cnc4c3)cc(F)c2n1 [Compound 207],1000 to 10000
14,Cc1cn2cc(-c3ccc4c(=O)n(C5CCNCC5)cnc4c3)cc(F)c2n1 [Compound 205],100 to 1000
15,Cc1cn2cc(-c3ccc4c(=O)n(C5CCN(C)CC5)cnc4c3F)cc(F)c2n1 [Compound 227],> 10000
16,"Cc1c(O)c(-c2ncc3c(=O)n([C@H]4CCN[C@H](C)C4)ccc3n2)cc2cn(C)nc12 [Compound 1461, 2-(6-hydroxy-2,7-dimethyl-indazol-5-yl)-6-[(2R,4S)-2-methyl-4-piperidyl]pyrido[4,3-d]pyrimidin-5-one]",100 to 1000
17,"Cc1cc(-c2ccc3c(c2)CCN(C2CCNCC2)C3=O)cc2cn(C)nc12 [Compound 219, 6-(2,7-dimethylindazol-5-yl)-2-(piperidin-4-yl)-3,4-dihydroisoquinolin-1-one]",> 10000
18,"Cc1cn2cc(-c3cc(F)c4c(=O)n(C5CCN(C)CC5)cnc4c3)cc(F)c2n1 [Compound 231, 5-fluoro-7-{8-fluoro-2-methylimidazo[1,2-a]pyridin-6-yl}-3-(1-methylpiperidin-4-yl)quinazolin-4-one]",100 to 1000
19,Cc1cc(-c2ccc3c(=O)n(C4CCNCC4)cnc3c2F)cc2cn(C)nc12 [Compound 234],1000 to 10000
20,"Cc1cn2cc(-c3ccc4c(c3)CCN(C3CCNCC3)C4=O)cc(Cl)c2n1 [Compound 216, 6-[8-chloro-2-methylimidazo[1,2-a]pyridin-6-yl]-2-(piperidin-4-yl)-3,4-dihydroisoquinolin-1-one]",1000 to 10000
21,"Cc1c(O)c(-c2ncc3c(=O)n([C@H]4CC[C@@H](N(C)C)CC4)ccc3n2)cc2cn(C)nc12 [Compound 1460, 6-((1s,4s)-4-(dimethylamino)cyclohexyl)-2-(6-hydroxy-2,7-dimethyl-2H-indazol-5-yl)pyrido[4,3-d]pyrimidin-5(6H)-one]",1000 to 10000

row,SMILES,IC50 [nM]
1,"Cc1cn2nc(-c3ccc4c(c3)CCN(C3CCNCC3)C4=O)cc2c(C)n1 [Compound 223, 6-[4,6-dimethylpyrazolo[1,5-a]pyrazin-2-yl]-2-(piperidin-4-yl)-3,4-dihydroisoquinolin-1-one]",> 10000
2,"Cc1c(O)c(-c2ccc3c(=O)n([C@@H]4C[C@@H](C)N[C@@H](C)C4)ccc3n2)cc2cn(C)nc12 [Compound 1463, 6-[(2S,6R)-2,6-dimethyl-4-piperidyl]-2-(6-hydroxy-2,7-dimethyl-indazol-5-yl)-1,6-naphthyridin-5-one]",1000 to 10000
3,Cc1cn2cc(-n3cnc4cc(N5CCNCC5)ccc4c3=O)cc(F)c2n1 [Compound 228],100 to 1000
4,"Cc1c(O)c(-c2ccc3c(=O)n([C@H]4C[C@@H](C)N[C@@H](C)C4)ccc3n2)cc2cn(C)nc12 [Compound 1464, 6-[(2S,6R)-2,6-dimethyl-4-piperidyl]-2-(6-hydroxy-2,7-dimethyl-indazol-5-yl)-1,6-naphthyridin-5-one]",100 to 1000
5,Cc1cn2cc(-c3ccc4c(=O)n(C5CCNCC5)cnc4c3F)cc(F)c2n1 [Compound 210],1000 to 10000
6,Cc1cn2cc(-n3cnc4cc(N5CCN(C)CC5)ccc4c3=O)cc(F)c2n1 [Compound 229],> 10000
7,Cc1cn2cc(-c3cc(F)c4c(=O)n(C5CCNCC5)cnc4c3)cc(F)c2n1 [Compound 230],100 to 1000
8,CN1CCC(n2cnc3cc(-c4cc(F)c5nn(C)cc5c4)ccc3c2=O)CC1 [Compound 209],> 10000
9,Cc1cn2cc(-c3ccc4c(=O)n(C5CCNC6(CC6)C5)cnc4c3)cc(F)c2n1 (stereo not drawn) [Compound 236],1000 to 10000
10,Cc1nc2c(F)cc(-c3ccc4c(c3)CCN(C3CCNCC3)C4=O)cc2s1 [Compound 226],> 10000
11,Cc1cc(-c2cc(F)c3c(=O)n(C4CCN(C)CC4)cnc3c2)cc2cn(C)nc12 [Compound 233],100 to 1000
12,"Cc1cn2nc(-c3ccc4c(=O)n(C5C[C@@H](C)N[C@H](C)C5)ncc4n3)cc(C)c2n1 (stereo in doubt) [Compound 1537, 2-(2,8-dimethylimidazo[1,2-b]pyridazin-6-yl)-6-[(2R,6R)-2,6-dimethyl-4-piperidyl]pyrido[2,3-d]pyridazin-5-one]",100 to 1000
13,Cn1cc2cc(-c3ccc4c(=O)n(C5CCNCC5)cnc4c3)cc(F)c2n1 [Compound 206],100 to 1000
14,CN1CCC(n2cnc3cc(-c4ccc5nn(C)cc5c4)ccc3c2=O)CC1 [Compound 208],> 10000
15,Cc1nc2c(F)cc(-c3ccc4c(c3)CCN(C3CCNCC3)C4=O)cc2o1 [Compound 215],1000 to 10000
16,"Cc1cn2cc(-c3ccc4c(c3)CCN(C3CCNCC3)C4=O)cc(C)c2n1 [Compound 217, 6-[2,8-dimethylimidazo[1,2-a]pyridin-6-yl]-2-(piperidin-4-yl)-3,4-dihydroisoquinolin-1-one]",> 10000
17,Cc1cc(-c2ccc3c(=O)n(C4CCN(C)CC4)cnc3c2F)cc2cn(C)nc12 [Compound 235],> 10000
18,Cc1cc(-c2cc(F)c3c(=O)n(C4CCNCC4)cnc3c2)cc2cn(C)nc12 [Compound 232],100 to 1000
19,"Cc1c(O)c(-c2ncc3c(=O)n([C@@H]4CCN[C@@H](C)C4)ccc3n2)cc2cn(C)nc12 [Compound 1462, 2-(6-hydroxy-2,7-dimethyl-indazol-5-yl)-6-[(2S,4R)-2-methyl-4-piperidyl]pyrido[4,3-d]pyrimidin-5-one]",100 to 1000
20,"Cc1c(O)c(-c2ncc3c(=O)n([C@H]4CC[C@H](N(C)C)CC4)ccc3n2)cc2cn(C)nc12 [Compound 1459, 6-((1r,4r)-4-(dimethylamino)cyclohexyl)-2-(6-hydroxy-2,7-dimethyl-2H-indazol-5-yl)pyrido[4,3-d]pyrimidin-5(6H)-one]",100 to 1000
21,Cc1cn2cc(-c3ccc4c(c3)CCN(C3CCNCC3)C4=O)ncc2n1 [Compound 224],> 10000
